Data as given in patent US10294202B2, “Pyrrolidinones as herbicides” (FMC Corporation, priority 2013, dated 2019).

Legend:
barnyardgrass [1] = assay: Test A pre-/postemergence herbicide test; assay type: in vivo, Echinochloa crus-galli
Outline: (§1)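 Scoring was visual, relative to untreated controls, on a 0–100 scale after about 10 greenhouse days. Preemergence treatment used a directed soil spray over seeded loam/sand; postemergence treatment targeted one- to two-leaf plants of 2–10 cm.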

crabgrass, large = assay: Test A pre-/postemergence herbicide test; assay type: in vivo, Digitaria sanguinalis
Outline: as §1

giant foxtail = assay: Test A pre-/postemergence herbicide test; assay type: in vivo, Setaria faberii
Outline: as §1

morningglory = assay: Test A pre-/postemergence herbicide test; assay type: in vivo, Ipomoea spp.
Outline: as §1

pigweed = assay: Test A pre-/postemergence herbicide test; assay type: in vivo, Amaranthus retroflexus
Outline: as §1

velvetleaf = assay: Test A pre-/postemergence herbicide test; assay type: in vivo, Abutilon theophrasti
Outline: as §1

wheat = assay: Test A pre-/postemergence herbicide test; assay type: in vivo, Triticum aestivum
Outline: as §1

corn = assay: Test A pre-/postemergence herbicide test; assay type: in vivo, Zea mays
Outline: as §1

rice = assay: Test C flooded paddy test; assay type: in vivo, Oryza sativa; conditions: Flood
Description: (§2) Plant species in the flooded paddy test consisted of rice (Oryza sativa), sedge, umbrella (small-flower umbrella sedge, Cyperus difformis), ducksalad (Heteranthera limosa), and barnyardgrass (Echinochloa crus-galli) grown to the 2-leaf stage for testing. At time of treatment, test pots were flooded to 3 cm above the soil surface, treated by application of test compounds directly to the paddy water, and then maintained at that water depth for the duration of the test. Treated plants and controls were maintained in a greenhouse for 13 to 15 days, after which time all species were compared to controls and visually evaluated. Plant response ratings, summarized in Table C, are based on a scale of 0 to 100 where 0 is no effect and 100 is complete control. A dash (-) response means no test result.

sedge, umbrella = assay: Test C flooded paddy test; assay type: in vivo, Cyperus difformis; conditions: Flood
Outline: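 Visual injury scored against controls after 13 to 15 days in the greenhouse, using 0 (no effect) to 100 (complete control). Test compounds went straight into paddy water held 3 cm above the soil surface on 2-leaf-stage plants, with that flood depth maintained for the whole test.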

ducksalad = assay: Test C flooded paddy test; assay type: in vivo, Heteranthera limosa; conditions: Flood
Description: as §2

barnyardgrass [2] = assay: Test C flooded paddy test; assay type: in vivo, Echinochloa crus-galli; conditions: Flood
Description: as §2

[3] = Postemergence, 1000 g ai/ha, 0 to 100 scale (0 no effect, 100 complete control)
[4] = Preemergence, 1000 g ai/ha, visual rating on 0 to 100 scale (0 no effect, 100 complete control), approx. 10 days
[5] = 31 g ai/ha, scale of 0 to 100 where 0 is no effect and 100 is complete control, 13 to 15 days
[6] = 62 g ai/ha, scale of 0 to 100 where 0 is no effect and 100 is complete control, 13 to 15 days
[7] = 125 g ai/ha, scale of 0 to 100 where 0 is no effect and 100 is complete control, 13 to 15 days
[8] = Postemergence, 125 g ai/ha, 0 to 100 scale, 0 no effect, 100 complete control
[9] = Postemergence, 500 g ai/ha, 0 to 100 scale (0 no effect, 100 complete control)
[10] = Preemergence, 125 g ai/ha, visual rating on 0 to 100 scale (0 no effect, 100 complete control)
[11] = preemergence, 500 g ai/ha, 0 to 100 scale

Cc1ccccc1NC(=O)C1C(=O)NCC1c1ccc(F)c(F)c1 (racemic) [Compound 19]
80: Plant response rating, Foxtail, Giant (giant foxtail; [3])
30: Plant response rating, Wheat (wheat; [3])
10: Plant response rating, Velvetleaf (velvetleaf; [3])
0: Plant response rating, Morningglory (morningglory; [3]) | Plant response rating, Morningglory (morningglory; [4]) | Plant response rating, Pigweed (pigweed; [3]) | Plant response rating, Pigweed (pigweed; [4]) | Plant response rating, Velvetleaf (velvetleaf; [4]) | Plant response rating, Wheat (wheat; [4]) | Plant response rating, Corn (corn; [3]) | Plant response rating, Corn (corn; [4]) | Plant response rating, Rice (rice; [5]) | Plant response rating, Rice (rice; [6]) | Plant response rating, Rice (rice; [7]) | Plant response rating, Rice (rice; 250 g ai/ha, scale 0 to 100) | Plant response rating, Sedge, Umbrella (sedge, umbrella; [5]) | Plant response rating, Sedge, Umbrella (sedge, umbrella; [6]) | Plant response rating, Sedge, Umbrella (sedge, umbrella; [7]) | Plant response rating, Sedge, Umbrella (sedge, umbrella; 250 g ai/ha, scale 0 to 100) | Plant response rating, Ducksalad (ducksalad; [5]) | Plant response rating, Ducksalad (ducksalad; [6]) | Plant response rating, Ducksalad (ducksalad; [7]) | Plant response rating, Ducksalad (ducksalad; 250 g ai/ha, scale 0 to 100) | Plant response rating, Barnyardgrass (barnyardgrass [2]; [5]) | Plant response rating, Barnyardgrass (barnyardgrass [2]; [6]) | Plant response rating, Barnyardgrass (barnyardgrass [2]; [7]) | Plant response rating, Barnyardgrass (barnyardgrass [2]; 250 g ai/ha, scale 0 to 100)
90: Plant response rating, Barnyardgrass (barnyardgrass [1]; [3]) | Plant response rating, Barnyardgrass (barnyardgrass [1]; [4]) | Plant response rating, Crabgrass, Large (crabgrass, large; [3]) | Plant response rating, Crabgrass, Large (crabgrass, large; [4]) | Plant response rating, Foxtail, Giant (giant foxtail; [4])

CS(=O)(=O)c1ccccc1NC(=O)C1C(=O)NCC1c1ccc(F)c(F)c1 (racemic) [Compound 21]
90: Plant response rating, Barnyardgrass (barnyardgrass [1]; [3]) | Plant response rating, Barnyardgrass (barnyardgrass [1]; [4]) | Plant response rating, Crabgrass, Large (crabgrass, large; [4]) | Plant response rating, Foxtail, Giant (giant foxtail; [4])
20: Plant response rating, Wheat (wheat; [4])
0: Plant response rating, Morningglory (morningglory; [3]) | Plant response rating, Corn (corn; [3]) | Plant response rating, Corn (corn; [4]) | Plant response rating, Rice (rice; [5]) | Plant response rating, Rice (rice; [6]) | Plant response rating, Rice (rice; [7]) | Plant response rating, Rice (rice; 250 g ai/ha, scale 0 to 100) | Plant response rating, Sedge, Umbrella (sedge, umbrella; [5]) | Plant response rating, Sedge, Umbrella (sedge, umbrella; [6]) | Plant response rating, Sedge, Umbrella (sedge, umbrella; [7]) | Plant response rating, Sedge, Umbrella (sedge, umbrella; 250 g ai/ha, scale 0 to 100) | Plant response rating, Ducksalad (ducksalad; [5]) | Plant response rating, Ducksalad (ducksalad; [6]) | Plant response rating, Barnyardgrass (barnyardgrass [2]; [5]) | Plant response rating, Barnyardgrass (barnyardgrass [2]; [6]) | Plant response rating, Barnyardgrass (barnyardgrass [2]; [7]) | Plant response rating, Barnyardgrass (barnyardgrass [2]; 250 g ai/ha, scale 0 to 100)
50: Plant response rating, Velvetleaf (velvetleaf; [4]) | Plant response rating, Ducksalad (ducksalad; [7])
40: Plant response rating, Morningglory (morningglory; [4]) | Plant response rating, Pigweed (pigweed; [4])
80: Plant response rating, Crabgrass, Large (crabgrass, large; [3]) | Plant response rating, Foxtail, Giant (giant foxtail; [3])
85: Plant response rating, Ducksalad (ducksalad; 250 g ai/ha, scale 0 to 100)
30: Plant response rating, Wheat (wheat; [3])
60: Plant response rating, Velvetleaf (velvetleaf; [3])

O=C1NCC(c2ccc(Cl)c(Cl)c2)C1C(=O)Nc1cccc(F)c1F (racemic) [Compound 25]
90: Plant response rating, Crabgrass, Large (crabgrass, large; [4]) | Plant response rating, Foxtail, Giant (giant foxtail; [3]) | Plant response rating, Foxtail, Giant (giant foxtail; [4])
0: Plant response rating, Morningglory (morningglory; [4]) | Plant response rating, Pigweed (pigweed; [3]) | Plant response rating, Pigweed (pigweed; [4]) | Plant response rating, Velvetleaf (velvetleaf; [4]) | Plant response rating, Wheat (wheat; [3]) | Plant response rating, Wheat (wheat; [4]) | Plant response rating, Corn (corn; [3]) | Plant response rating, Corn (corn; [4]) | Plant response rating, Rice (rice; [6]) | Plant response rating, Rice (rice; 250 g ai/ha, scale 0 to 100) | Plant response rating, Sedge, Umbrella (sedge, umbrella; [6]) | Plant response rating, Sedge, Umbrella (sedge, umbrella; 250 g ai/ha, scale 0 to 100) | Plant response rating, Ducksalad (ducksalad; [6]) | Plant response rating, Barnyardgrass (barnyardgrass [2]; [6]) | Plant response rating, Barnyardgrass (barnyardgrass [2]; 250 g ai/ha, scale 0 to 100)
60: Plant response rating, Ducksalad (ducksalad; 250 g ai/ha, scale 0 to 100)
10: Plant response rating, Morningglory (morningglory; [3]) | Plant response rating, Velvetleaf (velvetleaf; [3])
80: Plant response rating, Barnyardgrass (barnyardgrass [1]; [3]) | Plant response rating, Barnyardgrass (barnyardgrass [1]; [4]) | Plant response rating, Crabgrass, Large (crabgrass, large; [3])

O=C1NCC(c2ccsc2)C1C(=O)Nc1ccccc1F (racemic) [Compound 29]
30: Crabgrass, Large plant response rating (crabgrass, large; [10])
0: Plant response rating, Barnyardgrass (barnyardgrass [1]; [8]) | Plant response rating, Barnyardgrass (barnyardgrass [1]; [9]) | Barnyardgrass plant response rating (barnyardgrass [1]; [10]) | Plant response rating, Crabgrass, Large (crabgrass, large; [8]) | Plant response rating, Crabgrass, Large (crabgrass, large; [9]) | Plant response rating, Foxtail, Giant (giant foxtail; [8]) | Plant response rating, Foxtail, Giant (giant foxtail; [9]) | Foxtail, Giant plant response rating (giant foxtail; [10]) | Plant response rating, Foxtail, Giant (giant foxtail; [11]) | Plant response rating, Morningglory (morningglory; [8]) | Plant response rating, Morningglory (morningglory; [9]) | Morningglory plant response rating (morningglory; [10]) | Plant response rating, Morningglory (morningglory; [11]) | Plant response rating, Pigweed (pigweed; [8]) | Plant response rating, Pigweed (pigweed; [9]) | Pigweed plant response rating (pigweed; [10]) | Plant response rating, Pigweed (pigweed; [11]) | Plant response rating, Velvetleaf (velvetleaf; [8]) | Plant response rating, Velvetleaf (velvetleaf; [9]) | Velvetleaf plant response rating (velvetleaf; [10]) | Plant response rating, Velvetleaf (velvetleaf; [11]) | Plant response rating, Wheat (wheat; [8]) | Plant response rating, Wheat (wheat; [9]) | Wheat plant response rating (wheat; [10]) | Plant response rating, Wheat (wheat; [11]) | Plant response rating, Corn (corn; [8]) | Plant response rating, Corn (corn; [9]) | Corn plant response rating (corn; [10]) | Plant response rating, Corn (corn; [11]) | Plant response rating, Rice (rice; [5]) | Plant response rating, Rice (rice; [6]) | Plant response rating, Rice (rice; [7]) | Plant response rating, Rice (rice; 250 g ai/ha, scale 0 to 100) | Plant response rating, Sedge, Umbrella (sedge, umbrella; [5]) | Plant response rating, Sedge, Umbrella (sedge, umbrella; [6]) | Plant response rating, Sedge, Umbrella (sedge, umbrella; [7]) | Plant response rating, Sedge, Umbrella (sedge, umbrella; 250 g ai/ha, scale 0 to 100) | Plant response rating, Ducksalad (ducksalad; [5]) | Plant response rating, Ducksalad (ducksalad; [6]) | Plant response rating, Ducksalad (ducksalad; [7]) | Plant response rating, Barnyardgrass (barnyardgrass [2]; [5]) | Plant response rating, Barnyardgrass (barnyardgrass [2]; [6]) | Plant response rating, Barnyardgrass (barnyardgrass [2]; [7]) | Plant response rating, Barnyardgrass (barnyardgrass [2]; 250 g ai/ha, scale 0 to 100)
50: Plant response rating, Barnyardgrass (barnyardgrass [1]; preemergence, 500 g ai/ha, 0 to 100 scale (0 no effect, 100 complete control))
70: Plant response rating, Crabgrass, Large (crabgrass, large; [11])
40: Plant response rating, Ducksalad (ducksalad; 250 g ai/ha, scale 0 to 100)
